Laboratory results taken from US5498624A, “Selected pyrazolyl derivatives” (Monsanto Company, priority 1995, dated 1996).

Columns and labels:
[1] = test system: Septoria nodorum; experiment: Wheat Glume Blotch (WGB) In Vitro; type: cell-based; design: key: 0: no inhibition of mycelial growth; 1: slight inhibition of mycelial growth; 2: moderate inhibition of mycelial growth; 3: strong inhibition of mycelial growth; conditions: 4-6 days at 25° C.
Description: A) Pathogen/Inoculum Production--The wheat glume blotch fungus, Septoria nodorum, is cultured on yeast/malt agar at 22° C. and 12 hours fluorescent light. Several sterile loops full of mature pycnidia produced on a 7 day old culture plates are added to 30 mls of 1/4 strength potato dextrose broth. After 15 minutes the suspension is stirred, and adjusted to a concentration of 3×10^5 spores/mi.
B) Compound Preparation and Test Execution--200 μl of 1/4 strength potato dextrose broth is placed in each well of a 96 well microtiter plate. […] The commercial standard used is flusilazole, at equivalent rates.
C) Inoculation/Incubation--50 μl of a 3×10^5 spores/ml suspension obtained using the method above is added to each well. The 96-well plate is incubated for 4-6 days at 25° C., 12 hours fluorescent light.
(§1) D) Evaluation--After incubation, each well is visually assessed for growth inhibition on the following 0-3 scale:
(§2) 0=no inhibition of mycelial growth
(§3) 1=slight inhibition of mycelial growth
(§4) 2=moderate inhibition of mycelial growth
(§5) 3=strong inhibition of mycelial growth

[2] = target: Succinate Dehydrogenase; experiment: Enzyme Inhibition I-50 (WGB): Succinate Dehydrogenase Assay using Septoria nodorum mitochondria; type: biochemical; conditions: DCPIP reduction, read-out: WGB enzyme I-50
Description: Succinate Dehydrogenase Assay using Septoria nodorum mitochondria--Septorianodorum mycelia are prepared from spores via shake culture for 40-48 hours in 3% malt extract at room temperature. The mycelia are harvested by centrifugation and the pellets obtained are stored in the -80° C. freezer until use.
Mitochondria are isolated by a method adapted from White (Biochem. Biophys. Res. Commun. 44 (1971) 1212-19). Fifteen to twenty grams of frozen mycelia are resuspended in a 250 mL medium containing 0.25M sucrose, 5 mM tetrasodium ethylenediamine tetraacetic acid (Na4 EDTA), pH 7.0 containing 1.5 g/liter bovine serum albumin (BSA) and placed in a Bead Beater chamber (BioSpec Products, Bartlesville, Okla.). Zirconium oxide beads (0.5 mm) are added to finish filling the chamber. Four 30s beats separated by 2 rain temperature equilibration periods on ice are used to break the mycelia. The homogenate is centrifuged for 20 min at 3000×g and 4° C. to remove debris. The supernatant is recentrifuged at 20,000×g for 20 min at 4° C. The resulting pellet is resuspended in BSA-free sucrose/EDTA medium (40 mL) using a glass tissue homogenizer and teflon pestle and recentrifuged at 27,000×g for 15 min at 4° C. The pellet is resuspended in BSA-free sucrose/EDTA medium (~3 mL) and used for SDH assays.
The enzyme activity is measured at […] in a solution containing 50 mM potassium phosphate, pH7.2; 1 mM potassium cyanide; 45 μM 2,6-dichlorophenol indophenol (DCPIP) and 17 mM disodium succinate in a final volume of 1 mL with a Perkin-Elmer Lambda 7 ultraviolet-visible spectrophotometer. The test compounds are added as acetone solutions (final concentration of acetone less than or equal to 1%(v/v)). The mitochondrial preparations are used to initiate the reaction. All rates are corrected for succinate-independent dye reduction. Semilog plots of percentage inhibition versus test compound concentration are used to determine inhibition expressed as I50 (μM) which is the concentration required to inhabit the rate of DCPIP reduction by 50%. The commercial fungicide carboxin is used as a standard throughout [I50 (μM)=5.0±2.2; n=52].

[3] = test system: Pseudocercosporella herpotrichoides var. tritici; experiment: Wheat True Eyespot In Vitro Assay (WES In Vitro); type: cell-based; design: key: 0: no inhibition of mycelial growth; 1: slight inhibition of mycelial growth; 2: moderate inhibition of mycelial growth; 3: strong inhibition of mycelial growth; conditions: 3 days at 19° C.
Description: A) Pathogen/Inoculum Production--A mycelial transfer of Pseudocercosporella herpotrichoides var. tritici is placed onto potato dextrose agar plates and allowed to grow for 40 days at 20 ° C., without light. Five agar discs are taken from the actively growing culture and are placed equidistant, mycelial side down, onto a water agar plate, and incubated at 10 ° C. with 10 hours of fluorescent light per day. After 5 days of incubation, sporulation on the transferred discs begins, and plates are flooded with 3-5 mls sterile deionized water. One-half ml aliquots are taken from the resulting spore suspension and placed on new water agar plates. Spores are spread across plates using a bent glass rod and incubated at 10 ° C. with 10 hour fluorescent light periods per day. In 5-10 days, a lawn of spores is produced and can be "harvested".
B) Compound Preparation and Test Execution--200 μl of 1/4 strength potato dextrose broth is placed in each well of a 96 well microtiter plate. […] The commercial standard used is prochloraz at equivalent rates.
C) Inoculation/Incubation--50 μl of a 1×10^6 spores/ml suspension harvested using the method above is added to each well. The 96 well plates are incubated for 3 days at 19° C. in the dark.
as §1, §2, §3, §4, §5

SMILES: C[C@H]1CCC[C@H](c2ccccc2NC(=O)c2cn(C)nc2C(F)F)C1 (relative stereo) [Number 3, 1H-pyrazole-4-carboxamide, 3-(difluoromethyl)-1-methyl-N-[2-(3-methylcyclohexyl)phenyl]-, trans-]
- WGB In Vitro growth inhibition 0-3 scale ([1]; 0.1 ppm): 0
- WGB In Vitro growth inhibition 0-3 scale ([1]; 0.5 ppm): 0
- WGB In Vitro growth inhibition 0-3 scale ([1]; 5.0 ppm): 0
- IC50 [2]: 0.05 µM
- WES In vitro growth inhibition 0-3 scale ([3]; 0.1 ppm): 1
- WES In vitro growth inhibition 0-3 scale ([3]; 0.5 ppm): 2
- WES In vitro growth inhibition 0-3 scale ([3]; 5.0 ppm): 3

SMILES: CC[C@H]1CC[C@@H](c2ccccc2NC(=O)c2cn(C)nc2C(F)F)CC1 [Number 1, 1H-pyrazole-4-carboxamide, 3-(difluoromethyl)-N-[2-(4-ethylcyclohexyl)phenyl]-1-methyl-, cis-]
- WGB In Vitro growth inhibition 0-3 scale ([1]; 0.1 ppm): 0
- WGB In Vitro growth inhibition 0-3 scale ([1]; 0.5 ppm): 3
- WGB In Vitro growth inhibition 0-3 scale ([1]; 5.0 ppm): 3
- IC50 [2]: 0.015 µM
- WES In vitro growth inhibition 0-3 scale ([3]; 0.1 ppm): 0
- WES In vitro growth inhibition 0-3 scale ([3]; 0.5 ppm): 3
- WES In vitro growth inhibition 0-3 scale ([3]; 5.0 ppm): 3

SMILES: Cn1cc(C(=O)Nc2ccccc2[C@@H]2CCC[C@@H](C(F)(F)F)C2)c(C(F)F)n1 (relative stereo) [Number 6]
- WGB In Vitro growth inhibition 0-3 scale ([1]; 0.1 ppm): 0
- WGB In Vitro growth inhibition 0-3 scale ([1]; 0.5 ppm): 0
- WGB In Vitro growth inhibition 0-3 scale ([1]; 5.0 ppm): 1
- IC50 [2]: 0.52 µM
- WES In vitro growth inhibition 0-3 scale ([3]; 0.1 ppm): 0
- WES In vitro growth inhibition 0-3 scale ([3]; 0.5 ppm): 0
- WES In vitro growth inhibition 0-3 scale ([3]; 5.0 ppm): 2

SMILES: C[C@@H]1CCC[C@H](c2ccccc2NC(=O)c2cn(C)nc2C(F)F)C1 (relative stereo) [Number 2, 1H-pyrazole-4-carboxamide, 3-(difluoromethyl)-1-methyl-N-[2-(-3-methylcyclohexyl)phenyl]-, cis-]
- WGB In Vitro growth inhibition 0-3 scale ([1]; 0.1 ppm): 0
- WGB In Vitro growth inhibition 0-3 scale ([1]; 0.5 ppm): 1
- WGB In Vitro growth inhibition 0-3 scale ([1]; 5.0 ppm): 2
- IC50 [2]: 0.037 µM
- WES In vitro growth inhibition 0-3 scale ([3]; 0.1 ppm): 1
- WES In vitro growth inhibition 0-3 scale ([3]; 0.5 ppm): 2
- WES In vitro growth inhibition 0-3 scale ([3]; 5.0 ppm): 3

SMILES: Cn1cc(C(=O)Nc2ccccc2C2CCC(C)(C)CC2)c(C(F)F)n1 [Number 5, 1H-pyrazole-4-carboxamide, 3-(difluoromethyl)-N-(2-(4,4-dimethylcyclohexyl)phenyl]-1-methyl-]
- WGB In Vitro growth inhibition 0-3 scale ([1]; 0.1 ppm): 0
- WGB In Vitro growth inhibition 0-3 scale ([1]; 0.5 ppm): 2
- WGB In Vitro growth inhibition 0-3 scale ([1]; 5.0 ppm): 2
- IC50 [2]: 0.008 µM
- WES In vitro growth inhibition 0-3 scale ([3]; 0.1 ppm): 1
- WES In vitro growth inhibition 0-3 scale ([3]; 0.5 ppm): 3
- WES In vitro growth inhibition 0-3 scale ([3]; 5.0 ppm): 3

SMILES: Cn1cc(C(=O)Nc2ccccc2[C@H]2CC[C@H](C)CC2)c(C(F)(F)F)n1 [Number 4, 1H-pyrazole-4-carboxamide, 1-methyl-N-[2-(4-methylcyclohexyl)phenyl]-3-(trifluoromethyl)-, trans-]
- WGB In Vitro growth inhibition 0-3 scale ([1]; 0.1 ppm): 1
- WGB In Vitro growth inhibition 0-3 scale ([1]; 0.5 ppm): 1
- WGB In Vitro growth inhibition 0-3 scale ([1]; 5.0 ppm): 2
- IC50 [2]: 0.029 µM
- WES In vitro growth inhibition 0-3 scale ([3]; 0.1 ppm): 1
- WES In vitro growth inhibition 0-3 scale ([3]; 0.5 ppm): 2
- WES In vitro growth inhibition 0-3 scale ([3]; 5.0 ppm): 3
